Values after ≈ are worked out from the molar mass of the structure shown. Where two headings read alike, the source gives them in different places.
Experiments:
[1] = tested on: mouse leukemia, P388 cells; experiment: In vitro growth inhibition of P388 cells, 72 hours; format: cell-based
[2] = tested on: adriamycin-resistant P388 cells (P388/ADR); experiment: In vitro growth inhibition of adriamycin-resistant P388 cells (P388/ADR), 72 hours; format: cell-based; settings: Mus musculus, 72 hours, test compounds as trifluoroacetate, read-out: IC50
Leukemia L-1210 cells = experiment: Antitumor test against leukemia L-1210 in CDF1 mice (T/C, %); format: in vivo, mouse (CDF1); settings: for % Increase in life-span (T/C, %) / mice cured and surviving for 60 days or longer / mice tested: 9 days; for antitumor activities (in words): compared with FT-DM, FT-ADM, adriamycin or another test compound
Protocol: Thus, to evaluate the antitumor effects of the new compounds according to the first aspect of this invention against experimental tumors in animals, CDF1 mice (four mice per group) were intraperitoneally transplanted with cells of Leukemia L-1210 at an amount of 1×10^5 cells/mouse. Since an elapsed time of 24 hours from the transplantation of the leukemia cells, a test compound according to this invention was administered intraperitoneally to the mice under test for 9 consecutive days once per day. […] While, mice of the control group (the untreated group) were administered with only physiological saline after the transplantation of the L-1210 cells. During the observation period, the numbers of the surviving mice in the treated group and in the control group were counted, and the mean survival days of mice in the treated group and in the control group were then calculated. From the mean survival day (C) of the untreated mice of the control group and the mean survival day (T) of the treated mice of the treated group, there were evaluated percentages (%) of the increase in the life-span of the treated mice, as T/C %. For a comparison purpose, 7-O-(2,6-dideoxy-2-fluoro-α-L-talopyranosyl)daunomycinone (abbreviation: FT-DM); 7-O-(2,6-dideoxy-2-fluoro-α-L-talopyranosyl)adriamycinone(abbreviation: FT-ADM); and adriamycin were also tested in the same manner as above. Incidentally, the mean survival day of mice of the control group (the untreated group) was amounting to 8 to 9 days, and the mean survival day of mice of the comparative groups having received the administration of adriamycin was varying dependently on the dosage of adriamycin.
Notes; Asterisks (*) indicate that development of toxicity such as
toxicityrelated death or a body weight loss was observed on the
corresponding mice tested.

[3] = in vivo; cited from earlier work
[4] = P388, 72 hours, test compounds as trifluoroacetate, read-out: IC50
[5] = 0.3 mg/kg/day i.p., ">" = at least one of four mice survived 60 days or longer
[6] = 0.6 mg/kg/day i.p., ">" = at least one of four mice survived 60 days or longer
[7] = 1.25 mg/kg/day i.p., ">" = at least one of four mice survived 60 days or longer
[8] = 2.5 mg/kg/day i.p., ">" = at least one of four mice survived 60 days or longer
[9] = 5 mg/kg/day i.p., ">" = at least one of four mice survived 60 days or longer

Row | SMILES | IC50 [1, 4] [µg/mL] | IC50 [2] [µg/mL] | % Increase in life-span (T/C, %) (Leukemia L-1210 cells; 0.15 mg/kg/day i.p.) [%] | % Increase in life-span (T/C, %) (Leukemia L-1210 cells; [5]) [%] | % Increase in life-span (T/C, %) (Leukemia L-1210 cells; [6]) [%] | % Increase in life-span (T/C, %) (Leukemia L-1210 cells; [7]) [%] | % Increase in life-span (T/C, %) (Leukemia L-1210 cells; [8]) [%] | % Increase in life-span (T/C, %) (Leukemia L-1210 cells; [9]) [%] | further results
1 | COc1cccc2c1C(=O)c1c(O)c3c(c(O)c1C2=O)C[C@@](O)(C(=O)CO)C[C@@H]3O[C@H]1C[C@H](OC(=O)[C@@H](N)Cc2ccccc2)[C@H](OC(=O)[C@@H](N)Cc2ccccc2)[C@H](C(F)(F)F)O1 [Compound 49, 7-O-(2,6-dideoxy-6,6,6-trifluoro-3,4-di-O-L-phenylalanyl-α-L-lyxo-hexopyranosyl)adriamycinone] | 0.02 (≈ 0.0224 µM) | 0.28 (≈ 0.314 µM) | – | – | – | – | – | – | –
2 | COc1cccc2c1C(=O)c1c(O)c3c(c(O)c1C2=O)C[C@@](O)(C(=O)CO)C[C@@H]3O[C@@H]1O[C@@H](C)[C@@H](O)[C@@H](O)[C@H]1F [FT-ADM, 7-O-(2,6-dideoxy-2-fluoro-α-L-talopyranosyl)adriamycinone, reference compound] | – | – | 127 | 182 | 185 | 275 | > 352 | > 740 | mice cured and surviving for 60 days or longer / mice tested (Leukemia L-1210 cells; 2.5 mg/kg/day i.p.): 1/4; mice cured and surviving for 60 days or longer / mice tested (Leukemia L-1210 cells; 5 mg/kg/day i.p.): 4/4
3 | COc1cccc2c1C(=O)c1c(O)c3c(c(O)c1C2=O)C[C@@](O)(C(=O)CO)C[C@@H]3O[C@@H]1O[C@@H](C)[C@@H](OC(=O)[C@H](C)N)[C@@H](OC(=O)[C@H](C)N)[C@H]1F [Compound 11b, 7-O-(3,4-di-O-L-alanyl-2,6-dideoxy-2-fluoro-α-L-talopyranosyl)adriamycinone] | – | 0.31 (≈ 0.44 µM) | 115 | 144 | > 361 | > 407 | > 666 | > 502 | mice cured and surviving for 60 days or longer / mice tested (Leukemia L-1210 cells; 0.6 mg/kg/day i.p.): 1/4; mice cured and surviving for 60 days or longer / mice tested (Leukemia L-1210 cells; 1.25 mg/kg/day i.p.): 1/4; mice cured and surviving for 60 days or longer / mice tested (Leukemia L-1210 cells; 2.5 mg/kg/day i.p.): 2/4; mice cured and surviving for 60 days or longer / mice tested (Leukemia L-1210 cells; 5 mg/kg/day i.p.): 2/4; antitumor activities (in words) (Leukemia L-1210 cells; daunomycin): a little inferior to the antitumor activities of said mixture of Compounds 8b and 9b but are yet considerably high antiumor activities; IC50 ([1]; P388, 72 h): < 0.0098 µg/mL
4 | COc1cccc2c1C(=O)c1c(O)c3c(c(O)c1C2=O)C[C@@](O)(C(C)=O)C[C@@H]3O[C@H]1C[C@H](N)[C@H](O)[C@H](C)O1 [daunomycin, reference compound] | – | – | – | – | – | – | – | – | percentage (%) of increase in life-span (T/C, %) at maximum (Leukemia L-1210 cells; 2.5 mg/kg/day to 5 mg/kg/day, L-1210 mice): approximately 330%; development of toxicity (in words) (Leukemia L-1210 cells; daunomycin, adriamycin 2.5 mg/kg/day to 5 mg/kg/day, L-1210 mice): being accompanied by development of toxicity; serious side-effects (in words) [3]: serious side-effects such as leukocytopenia, alopecia, myocardiopathy and others
5 | COc1cccc2c1C(=O)c1c(O)c3c(c(O)c1C2=O)C[C@@](O)(C(=O)CO)C[C@@H]3O[C@@H]1O[C@@H](C(F)(F)F)[C@@H](OC(=O)[C@@H](N)Cc2ccccc2)[C@@H](OC(=O)[C@@H](N)Cc2ccccc2)[C@H]1F [Compound 37, 7-O-(2,6-dideoxy-2,6,6,6-tetrafuluoro-3,4-di-O-L-phenylalanyl-α-L-talopyranosyl)adriamycinone] | 0.016 (≈ 0.0176 µM) | 0.17 (≈ 0.187 µM) | – | – | – | – | – | – | –
6 | COc1cccc2c1C(=O)c1c(O)c3c(c(O)c1C2=O)C[C@@](O)(C(=O)CO)C[C@@H]3O[C@@H]1O[C@@H](C)[C@@H](O)[C@@H](OC(=O)[C@H](C)N)[C@H]1F [Compound 8b, 7-O-(3-O-L-alanyl-2,6-dideoxy-2-fluoro-α-L-talopyranosyl)adriamycinone] | – | – | – | – | – | – | – | – | antitumor activities (in words) (Leukemia L-1210 cells; daunomycin): remarkably improved antitumor activities in comparison with those of the parent compound, FT-ADM
7 | COc1cccc2c1C(=O)c1c(O)c3c(c(O)c1C2=O)C[C@@](O)(C(=O)CO)C[C@@H]3O[C@@H]1O[C@@H](C)[C@@H](OC(=O)[C@@H](N)Cc2ccccc2)[C@@H](OC(=O)[C@@H](N)Cc2ccccc2)[C@H]1F [Compound 11c, 7-O-(2,6-dideoxy-2-fluoro-3,4-di-O-L-phenylalanyl-α-L-talopyranosyl)adriamycinone] | 0.026 (≈ 0.0303 µM) | 0.14 (≈ 0.163 µM) | 123 | 130 | 143 | 170 | 177 | 253 | –
8 | COc1cccc2c1C(=O)c1c(O)c3c(c(O)c1C2=O)C[C@@](O)(C(=O)CO)C[C@@H]3O[C@@H]1O[C@@H](C(F)(F)F)[C@@H](OC(=O)CN)[C@@H](OC(=O)CN)[C@H]1F [Compound 18, 7-O-(2,6-dideoxy-2,6,6,6-tetrafluoro-3,4-di-O-glycyl-α-L-talopyranosyl)adriamycinone] | < 0.0098 | 0.28 (≈ 0.383 µM) | – | – | – | – | – | – | –

Reference: patent publication US5789386A, “Fluorine-containing anthracycline derivatives having hydroxyl groups(s) mono- or di-o-aminoalkanoylated in the sugar moiety thereof” (priority 1995, dated 1998)
